This passage reports Ki results from BindingDB's records for patent US12384772 (Vivoryon Therapeutics, 2025).

The target in assay [1] is T1, Glutaminyl-peptide cyclotransferase (Homo sapiens, UniProt Q16769). Description: Inhibition Assay (pH 6). As for the experimental part: (§1) 10 mM compound stock solutions were prepared in DMSO. For IC50 determination compound stocks were serially diluted (1:3) in DMSO.All measurements were performed with an EnSpire Perkin Elmer multimode reader using glutaminyl-7-amino-4-methylcoumarin (H-Gin-AMC) as substrate and recombinant pyroglutamyl aminopeptidase (pGAP) as auxiliary enzyme. Reactions were carried out at ambient temperature in black 96-well half area microplates. Each sample consisted of 1 μl test compound solution or solvent (DMSO) and 49 μl QC appropriately diluted in assay buffer (50 mM Tris/HCl, pH 8.0 or 50 mM MES buffer, pH=6.0). After a 10 min preincubation at ambient temperature the enzyme reaction was started by adding 50 μl of Gln-AMC-substrate/pGAP mixture in assay buffer. Final substrate concentrations were 50 and 200 μM for measurement at pH 8.0 or 6.0, respectively. Release of flourogenic AMC were recorded at excitation/emission wavelengths of 380/460 nm. Initial velocity of the enzyme reaction was calculated by linear regression of the first 10 data points using the Enspire Manager software. Final evaluation and calculation of IC50s were performed using GraphPad Prism software.
T1 sequence (Q16769 whole entry): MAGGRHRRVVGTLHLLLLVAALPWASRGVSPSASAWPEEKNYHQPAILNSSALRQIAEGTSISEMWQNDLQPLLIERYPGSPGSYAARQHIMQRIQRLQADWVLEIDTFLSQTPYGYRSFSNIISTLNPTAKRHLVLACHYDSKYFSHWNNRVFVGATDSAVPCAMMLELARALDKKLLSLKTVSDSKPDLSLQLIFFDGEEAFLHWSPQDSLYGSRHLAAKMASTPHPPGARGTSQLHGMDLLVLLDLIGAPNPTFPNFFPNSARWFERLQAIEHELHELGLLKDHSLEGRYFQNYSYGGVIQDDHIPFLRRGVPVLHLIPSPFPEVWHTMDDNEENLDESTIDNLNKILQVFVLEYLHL

In assay [2] the target is T1, Glutaminyl-peptide cyclotransferase. Description: Inhibition Assay (pH 8.0). As for the experimental part: as §1

Molecules are shown by their SMILES.

For orientation: Ki means the equilibrium dissociation constant of an inhibitor or competing ligand from its target. The low end stands for higher affinity, the high end for lower affinity. In the case of `CS(=O)(=NCc1ccc2[nH]cnc2c1)c1ccc(F)cc1` (configuration not stated) [US12384772, Compound 1285], the Ki in assay [1] turned out to be 8.05 µM; in assay [2] it was 5.18 µM.
